Paper PMC10584170, “Machine learning-based phenotypic imaging to characterise the targetable biology of Plasmodium falciparum male gametocytes for the development of transmission-blocking antimalarials” (PLOS Pathogens, 2023)
Like-named read-outs stand apart in the source and are kept apart here.

Assays:
[1] = test system: HepG2 cells; assay: HepG2 cytotoxicity counter-screen; conditions: cytotoxic activity against HepG2 cells
[2] = test system: P. falciparum male gametocytes; assay: P. falciparum Dual Gamete Formation Assay (PfDGFA), male readout (exflagellation); assay type: cell-based, Plasmodium falciparum NF54; conditions: for Selectivity Ratio M: HepG2 Tox50 versus male IC50; for inhibition at 2 µM / Average inhibition male (%) / % inhibition male (individual replicates) R1 / % inhibition male (individual replicates) R3 / % inhibition male (individual replicates) R4: 24h preincubation with gametocytes; for IC50: PfDGFA, 24 h incubation with gametocytes before induction, exflagellation readout, read-out: Male IC50; for HitlevelM: number of replicates with >50% inhibition in the male readout
In short: (§1)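 Read-outs are automated image counts of exflagellation centres (brightfield, 10 frames over 1 s) and Pfs25-positive female gametes (Cy3 fluorescence).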

[3] = test system: P. falciparum female gametocytes; assay: P. falciparum Dual Gamete Formation Assay (PfDGFA), female readout (Pfs25-positive female gametes); assay type: cell-based, Plasmodium falciparum NF54; conditions: for Selectivity ratio F: HepG2 Tox50 versus female IC50; for inhibition at 2 µM / Average inhibition female (%) / % inhibition female (individual replicates) R1 / % inhibition female (individual replicates) R3 / % inhibition female (individual replicates) R4: 24h preincubation with gametocytes; for IC50: PfDGFA, 24 h incubation with gametocytes before induction, female gamete readout, read-out: Female IC50; for HitlevelF: number of replicates with >50% inhibition in the female readout
In short: as §1

[4] = Plasmodium falciparum, 2µM, average of replicates, read-out: Average inhibition male (%)
[5] = Plasmodium falciparum, 2µM, replicate R1, read-out: % inhibition male (individual replicates) R1
[6] = Plasmodium falciparum, 2µM, replicate R2, read-out: % inhibition male (individual replicates) R2
[7] = Plasmodium falciparum, 2µM, replicate R3, read-out: % inhibition male (individual replicates) R3
[8] = Plasmodium falciparum, 2µM, replicate R4, read-out: % inhibition male (individual replicates) R4
[9] = Plasmodium falciparum, 2µM, average of replicates, read-out: Average inhibition female (%)
[10] = Plasmodium falciparum, 2µM, replicate R1, read-out: % inhibition female (individual replicates) R1
[11] = Plasmodium falciparum, 2µM, replicate R2, read-out: % inhibition female (individual replicates) R2
[12] = Plasmodium falciparum, 2µM, replicate R3, read-out: % inhibition female (individual replicates) R3
[13] = Plasmodium falciparum, 2µM, replicate R4, read-out: % inhibition female (individual replicates) R4
[14] = PfDGFA at 2µM, average of replicates

Structure (SMILES) | IC50 ([2]; Plasmodium falciparum) | IC50 ([3]; Plasmodium falciparum) | IC50 [2] | IC50 [3] | Tox50 [1] | Selectivity Ratio M [2] | inhibition at 2 µM [2, 4] | inhibition at 2 µM [2, 5] | inhibition at 2 µM [2, 6] | inhibition at 2 µM [2, 7] | inhibition at 2 µM [2, 8] | Selectivity ratio F [3] | inhibition at 2 µM [3, 9] | inhibition at 2 µM [3, 10] | inhibition at 2 µM [3, 11] | inhibition at 2 µM [3, 12] | inhibition at 2 µM [3, 13] | Average inhibition male (%) [2, 14] | % inhibition male (individual replicates) R1 ([2]; PfDGFA at 2µM, replicate R1) | % inhibition male (individual replicates) R3 ([2]; PfDGFA at 2µM, replicate R3) | other results
[O-][s+]1c(Cl)c(-c2ccc(Cl)cc2)c2ccc(Cl)cc21 (stereo not drawn) [TCMDC-124011] | 0.14 µM | 0.14 µM | – | – | 17.6 µM | 123.92 | 99.1% | 99.4% | 99.6% | 98.6% | 98.9% | 125.38 | 46.7% | 29.4% | 65.7% | 37% | 54.7% | – | – | – | –
CCCCOc1ccc(C(=O)C(CCC(CNC(C)(C)C)C(=O)c2ccc(OCCCC)cc2)CNC(C)(C)C)cc1.Cl (stereo not drawn) [TCMDC-124120] | – | – | 1.5 µM | 4.06 µM | 3.4 µM | 2.27 | – | – | – | – | – | 0.84 | – | – | – | – | – | 78.6% | 81.6% | 47.4% | % inhibition male (individual replicates) R4 ([2]; PfDGFA at 2µM, replicate R4): 92.9%; HitlevelM ([2]; 2µM): 3; Average inhibition female (%) [3, 14]: 46.8%; % inhibition female (individual replicates) R1 ([3]; PfDGFA at 2µM, replicate R1): 36.1%; % inhibition female (individual replicates) R3 ([3]; PfDGFA at 2µM, replicate R3): 20.3%; % inhibition female (individual replicates) R4 ([3]; PfDGFA at 2µM, replicate R4): 72.1%; HitlevelF ([3]; 2µM): 2
Cl.Cl.c1ccc2c(NCCCCCCNc3c4ccccc4nc4ccccc34)c3ccccc3nc2c1 [TCMDC-124285] | – | – | 1.68 µM | 3.18 µM | 6.2 µM | 3.7 | – | – | – | – | – | 1.95 | – | – | – | – | – | – | – | – | Average inhibition male (%) ([2]; 2µM, average of replicates): 93.2%; % inhibition male (individual replicates) R1 ([2]; 2µM, replicate R1): 96.3%; % inhibition male (individual replicates) R4 ([2]; 2µM, replicate R4): 88.4%; Average inhibition female (%) ([3]; 2µM, average of replicates): 50.4%; % inhibition female (individual replicates) R1 ([3]; 2µM, replicate R1): 48.2%; % inhibition female (individual replicates) R3 ([3]; 2µM, replicate R3): 44.8%; % inhibition female (individual replicates) R4 ([3]; 2µM, replicate R4): 50.1%

Now from value to molecule, other results behind:

IC50 ([2]; Plasmodium falciparum) | IC50 ([3]; Plasmodium falciparum) | IC50 [2] | IC50 [3] | Structure (SMILES) | Tox50 [1] | Selectivity Ratio M [2] | inhibition at 2 µM [2, 4] | inhibition at 2 µM [2, 5] | inhibition at 2 µM [2, 6] | inhibition at 2 µM [2, 7] | inhibition at 2 µM [2, 8] | Selectivity ratio F [3] | inhibition at 2 µM [3, 9] | inhibition at 2 µM [3, 10] | inhibition at 2 µM [3, 11] | inhibition at 2 µM [3, 12] | inhibition at 2 µM [3, 13] | Average inhibition male (%) [2, 14] | % inhibition male (individual replicates) R1 ([2]; PfDGFA at 2µM, replicate R1) | % inhibition male (individual replicates) R3 ([2]; PfDGFA at 2µM, replicate R3) | other results
– | – | 1.77 µM | 6.98 µM | CCN1CCN(c2ccc(Nc3c4ccccc4nc4ccccc34)cc2)CC1 [TCMDC-124255] | 14.96 µM | 8.44 | – | – | – | – | – | 2.14 | – | – | – | – | – | 77.2% | 84.6% | 78.3% | % inhibition male (individual replicates) R4 ([2]; PfDGFA at 2µM, replicate R4): 87.4%; HitlevelM ([2]; 2µM): 4; Average inhibition female (%) [3, 14]: -4.4%; % inhibition female (individual replicates) R1 ([3]; PfDGFA at 2µM, replicate R1): -2.2%; % inhibition female (individual replicates) R3 ([3]; PfDGFA at 2µM, replicate R3): -22.1%; % inhibition female (individual replicates) R4 ([3]; PfDGFA at 2µM, replicate R4): 3.0%; HitlevelF ([3]; 2µM): 0
0.94 µM | 1.78 µM | – | – | O=C1Nc2ccccc2C1=NNC(=S)N1CCOCC1 [TCMDC-124263] | 46.3 µM | 49.26 | 98.7% | 98.4% | 100% | 99.2% | 96.9% | 25.94 | 55.9% | 38.4% | 72% | 48.4% | 64.6% | – | – | – | –
